From patent US7169787B2, “7-azaindoles, use thereof as phosphodiesterase 4 inhibitors and method for producing the same” (Elbion AG, priority 2000, dated 2007) come the findings set out here.

One data set relates to Lewis Rats. Put plainly: Inhibition of the lipopolysaccharide (LPS)-induced lung neutrophilia. The format is in vivo, rat. As to conditions: 1 mg/kg p.o., 2 h before LPS provocation; BAL 6 h after provocation. Here is the method:
The inhibition of pulmonary neutrophil infiltration by the inventive substances is tested on male Lewis Rats (250–350 g). On the day of the experiments, the animals are placed individually in open 1 L Plexiglas boxes, which are connected to a head-nose exposure device. The animals are exposed to an aerosol of a lipopolysaccharide suspension (100 μg LPS/mL of 0.1% hydroxylamine solution) in PBS (LPS provocation). The LPS/hydroxylamine aerosol is nebulized by a nebulizer (Bird Micronebulizer, Palm Springs Calif., USA), which is operated with compressed air (0.2 MPa). The exposure time is 40 minutes, normal controls being nebulized also for 40 minutes with an aerosol of 0.1% hydroxylamine solution in PBS.
Six hours after the LPS provocation, there is a maximum, massive migration of neutrophil granulocytes into the lungs of the animals. At this time, the animals are anesthetized with an excess of ethyl urethane (1.5 g/kg of body weight i.p.) and a bronchoalveolar lavage (BAL) with 3×4 mL of Hank's balance solution is carried out. The total cell count and the number of neutrophil granulocytes of the pooled BAL liquid are subsequently determined with an automatic cell differentiation instrument (Bayer Diagnostics Technicon HIE). For each animal, the neutrophiles (NEUTRO) in the BAL are calculated in millions/animal: NEUTRO/μl×BAL recovery (mL)=NEUTRO/animal.
For each test, 2 control groups were also run (nebulization with 0.1% hydroxylamine solution in PBS and nebulization with 100 μg LPS/mL of 0.1% hydroxylamine solution in PBS).
The percentage inhibition of the neutrophilia of the experimental group, treated with substance, was calculated according to the following formula: {((LPSC−SC)−(LPSD−SC))/(LPSC−SC)}×100%=% inhibition SC=vehicle-treated control group challenged with 0.1% hydroxylamine solution; LPSC=vehicle-treated control group challenged with LPS (100 μg/mL 0.1% hydroxylamine solution); LPSD=substance-treated experimental group challenged with LPS (100 μg/mL 0.1% hydroxylamine solution) […]

The target of the next data set is PDE 4. In words: Inhibition of phosphodiesterase 4 (enzyme preparation from human PMNL, [3H]-cAMP). In kind it is biochemical. As to conditions: PDE 4 from human PMNL cytosol, 0.5 μM [3H]-cAMP. The protocol: The PDE 4 activity is determined in enzyme preparations from human polymorphonuclear […] (PMNL) and the PDE 2, 3 and 5 activity is determined with PDE from human thrombocytes. Human blood was anti-coagulated with citrate. By centrifuging at 700×g for 20 minutes at room temperature, the thrombocyte-rich plasma in the supernatant is separated from the erythrocytes and leukocytes. The thrombocytes are lysed by ultrasound and used in the PDE 3 and PDE 5 assays. For the determination of the PDE 2 activity, the cytosolic thrombocyte fraction is purified on an anionic exchange column by means of NaCl gradients and the PDE 2 peak is obtained for the assay. The PMNLs for the PDE 4 determination are isolated by a subsequent dextran sedimentation, followed by a gradient centrifugation with Ficoll-Paque. After the cells have been washed twice, the erythrocytes, still contained, are lysed within 6 minutes at 4° C. by the addition of 10 mL of hypotonic buffer (155 mM of NH4Cl, 10 mM of NaHCO3, 0.1 mM of EDTA, pH=7.4). The PMNLs, which are still intact, are washed twice with PBS and lysed with ultrasound. The supernatant of a one-hour centrifugation at 4° C. at 48,000×g contains the cytosolic fraction of the PDE 4 and is used for the PDE 4 measurements.
The phosphodiesterase activity is determined using the method described by Thompson et al. with some modifications (Thompson, W. J. and M. M. Appleman, Assay of cyclic nucleotide phosphodiesterase and resolution of multiple molecular forms of the enzyme, Adv. Cycl. Nucl. Res. 1979, 10, 69–92).
The reaction mixtures contain 50 mM of tris hydrochloride (pH 7.4), 5 mM of magnesium chloride, the inhibitors in various concentrations, the corresponding enzyme preparation as well as the further components necessary for determining the individual isoenzymes (see below). The reaction is started by the addition of the substrate, 0.5 μM of [^3H]-cAMP or [^3H]-cGMP (approximately 6000 CPM per test). The final volume is […]. Test substances are mixed as stock solutions in DMSO. The DMSO concentration in the reaction mixture is 1% v/v. The PDE activity is not affected by this concentration of DMSO. After the reaction is started by the addition of substrate, samples are incubated for 30 minutes at 37° C. The reaction is stopped by heating the test tubes for 2 minutes at 110° C. The samples remain for a further 10 minutes in ice. The addition of 30 μL of 5′-nucleotidase (1 mg/mL, from a poisonous snake suspension from Crotalus adamanteus) is followed by a 10-minutes incubation at 37° C. The samples are stopped on ice, in each case 400 μL of a mixture of Dowex, water and ethanol (1+1+1) is added, mixed well and incubated once again for 15 minutes on ice. The reaction vessels are centrifuged for 20 minutes at 3000×g. Aliquots of the supernatant (200 μL) are transferred directly to scintillation vessels. After the addition of 3 mL of scintillator, the samples are measured in the beta counter.
[^3H]-cAMP is used as substrate for the determination of the PDE 4, 3 and 2 activity and [^3H]-cGMP is used as substrate for the determination of the PDE 5 activity. The enzyme activities, which are nonspecific in each case, are determined in the presence of 100 μM of Rolipram for the determination of PDE 4 and in the presence of 100 μM of IBMX for the determination of the PDE 3 and 5 and subtracted from the test values. The incubation formulations of the PDE 3 assays contained 10 μM of Rolipram, in order to inhibit possible contaminations by PDE 4. The PDE 2 is tested with an SPA assay of the Amersham Company. The assay is carried out in the presence of the activator of the PDE 2 (5 μM of cGMP).

The term melting point denotes the temperature of the solid-liquid transition. Broadly, the IC50 is the concentration that gives 50% inhibition.

Compound `Cc1ccc(Cn2cc(C(=O)C(=O)Nc3c(Cl)cncc3Cl)c3cccnc32)cc1` [Example 22] showed a melting point of 176 to 178 °C. Moreover, the “Inhibition of neutrophilia (table titled Inhibition of Eosinophilia)” value with Lewis Rats came out at 64%. For the same compound, at PDE 4, the half-inhibitory concentration (IC50) was 2 nM.
